According to patent publication US11111243B2, “Azaindole compounds as histone methyltransferase inhibitors” (GLOBAL BLOOD THERAPEUTICS, INC., priority 2017, dated 2021):
Where a name gives a salt, the structure may show the parent alone.

What follows are compounds tested against T1, G9a (Homo sapiens, UniProt Q96KQ7) (assay: G9a AlphaLISA enzymatic activity assay). Details: 0.15 nM G9a, 10 uM S-adenosyl-methionine, 100 nM biotinylated histone 3 peptide (1-21), 1 h room temperature.
T1 sequence (Q96KQ7 1-1210): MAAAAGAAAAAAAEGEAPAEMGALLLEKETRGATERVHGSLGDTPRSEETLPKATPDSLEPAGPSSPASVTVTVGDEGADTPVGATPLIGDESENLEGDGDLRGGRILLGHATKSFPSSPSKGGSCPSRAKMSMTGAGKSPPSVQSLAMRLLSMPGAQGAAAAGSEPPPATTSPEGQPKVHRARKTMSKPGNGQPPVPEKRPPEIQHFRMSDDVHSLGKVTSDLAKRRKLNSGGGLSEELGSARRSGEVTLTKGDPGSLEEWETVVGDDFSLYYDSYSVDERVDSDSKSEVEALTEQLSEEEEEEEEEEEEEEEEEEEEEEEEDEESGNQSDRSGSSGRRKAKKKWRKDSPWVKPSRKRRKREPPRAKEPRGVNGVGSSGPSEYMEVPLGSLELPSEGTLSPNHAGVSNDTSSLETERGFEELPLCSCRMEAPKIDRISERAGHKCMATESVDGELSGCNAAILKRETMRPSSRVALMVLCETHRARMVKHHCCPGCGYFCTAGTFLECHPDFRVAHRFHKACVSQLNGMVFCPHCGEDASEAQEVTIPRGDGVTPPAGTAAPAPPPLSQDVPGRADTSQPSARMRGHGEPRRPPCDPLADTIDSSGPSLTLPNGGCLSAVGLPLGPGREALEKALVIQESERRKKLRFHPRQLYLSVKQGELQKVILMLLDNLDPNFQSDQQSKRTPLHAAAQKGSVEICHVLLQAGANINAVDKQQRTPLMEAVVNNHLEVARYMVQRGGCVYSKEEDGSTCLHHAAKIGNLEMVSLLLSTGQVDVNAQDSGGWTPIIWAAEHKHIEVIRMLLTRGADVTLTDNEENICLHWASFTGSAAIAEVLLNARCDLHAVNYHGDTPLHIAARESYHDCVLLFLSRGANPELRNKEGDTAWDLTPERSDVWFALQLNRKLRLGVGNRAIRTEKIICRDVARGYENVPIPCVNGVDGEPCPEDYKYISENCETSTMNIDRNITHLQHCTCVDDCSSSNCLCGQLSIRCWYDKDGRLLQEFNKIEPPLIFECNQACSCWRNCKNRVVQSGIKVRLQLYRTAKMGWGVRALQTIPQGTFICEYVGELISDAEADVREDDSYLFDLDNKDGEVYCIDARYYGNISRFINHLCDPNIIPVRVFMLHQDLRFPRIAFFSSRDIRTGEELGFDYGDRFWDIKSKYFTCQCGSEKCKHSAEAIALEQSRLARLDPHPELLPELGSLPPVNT
Assay type: biochemical
Description: The G9a AlphaLISA assay was used to detect the methyl modifications of a biotinylated histone H3 peptide by the compounds. These modifications are done by the histone methyl transferase activity of the G9a enzyme. The assay consists of reading a chemiluminescent signal at 615 nm; this signal is generated by a laser excitation at 680 nm that transfers a reactive singlet oxygen between the donor beads and acceptor beads. Donor beads are streptavidin conjugated and bind to the biotin on the peptide. Acceptor beads are conjugated with an antibody that recognizes the specific G9a methyl mark on the peptide. If there is a methyl mark on the peptide, the acceptor beads will bind to the peptide. Upon binding, the acceptor beads will be in close proximity (<200 nm) of the donor beads and when the donor beads are excited, the transfer of the oxygen can occur and a strong signal will be generated. If there is no methyl mark, the interaction between beads will not occur and signal will be at background levels.
For the assay, the following buffer was used to set up reactions: 50 mM Tris-HCl pH9, 50 mM NaCl, 0.01% Tween-20 and 1 mM DTT (added fresh prior to starting the reactions). The assay is set up by adding a final concentration of 0.15 nM G9a, 10 uM S-adenosyl-methionine and, 100 nM biotinylated histone 3 peptide (1-21). The reaction is incubated at room temperature for 1 h, and subsequently quenched by the addition of the acceptor beads (anti-H3k9me2 AlphaLISA acceptor beads, PerkinElmer #AL117) at a final concentration of 20 ug/mL. The acceptor beads are incubated for 1 h. After 1 h, the donor beads are added at a final concentration of 20 ug/mL (Alpha Streptavidin donor beads, PerkinElmer #6760002). Donor beads are incubated for 0.5 h. Both donor and acceptor beads are resuspended in AlphaLISA 5× Epigenetics Buffer 1 Kit (PerkinElmer #AL008) prior to addition to the reaction. All manipulations and incubations with the donor and acceptor beads are done in subdued light. Signal is detected in an EnVision plate reader in Alpha mode (See ACS Med Chem Lett. 2014 Jan. 2; 5(2):205-9)
Percent inhibition was calculated for each compound dilution and the concentration that produced 50% inhibition was calculated. This value is presented as the IC50.

With `COc1cc2c(cc1OCCCN(C(C)C)C(C)C)[nH]c1ccnc(C3CC3)c12` [Compound 61, [3-({1-cyclopropyl-8-methoxy-5H-pyrido[4,3-b]indol-7-yl}oxy)propyl]bis(propan-2-yl)amine hydrochloride] as the compound, how does the IC50 read?
Its IC50 is 480 nM.

With `COc1cc2c(cc1OCCCN1CC[C@@H](F)C1)[nH]c1ccnc(C3CC3)c12` [Compound 62, (3R)-1-[3-({1-cyclopropyl-8-methoxy-5H-pyrido[4,3-b]indol-7-yl}oxy)propyl]-3-fluoropyrrolidine hydrochloride] as the compound, how does the IC50 read?
The IC50 was 53 nM.

Which IC50 does the source give for `COc1cc2c(cc1OCCCN1CC[C@H](F)C1)[nH]c1ccnc(C3CC3)c12` [Compound 63, (3S)-1-[3-({1-cyclopropyl-8-methoxy-5H-pyrido[4,3-b]indol-7-yl}oxy)propyl]-3-fluoropyrrolidine hydrochloride] here?
The IC50 was 130 nM.

How did the IC50 turn out when `COc1cc2c(cc1OCCCN1CCCC1)[nH]c1ccnc(C3=CCOCC3)c12` [Compound 64, 1-(3-{[1-(3,6-dihydro-2H-pyran-4-yl)-8-methoxy-5H-pyrido[4,3-b]indol-7-yl]oxy}propyl)pyrrolidine hydrochloride] was run?
The IC50 was 12 nM.

With `COc1cc2c(cc1OCCCN1CCCC1)[nH]c1ccnc(C3CCOCC3)c12` [Compound 65, 1-(3-{[8-methoxy-1-(oxan-4-yl)-5H-pyrido[4,3-b]indol-7-yl]oxy}propyl)pyrrolidine hydrochloride] as the compound, how does the IC50 read?
The IC50 was 8.2 nM.

With `COc1cc2c(cc1OCCCN(C)C)[nH]c1ccnc(C(C)C)c12` [Compound 67, (3-{[8-methoxy-1-(propan-2-yl)-5H-pyrido[4,3-b]indol-7-yl]oxy}propyl)dimethylamine hydrochloride] as the compound, how does the IC50 read?
The IC50 was 9.5 nM.

How did the IC50 turn out when `COc1cc2c(cc1OCCCN(C)C)[nH]c1ccnc(C3CCOCC3)c12` [Compound 68, (3-{[8-methoxy-1-(oxan-4-yl)-5H-pyrido[4,3-b]indol-7-yl]oxy}propyl)dimethylamine hydrochloride] was run?
The IC50 was 26 nM.

`COc1cc2c(cc1OCCCN(C)C)[nH]c1ccnc(C3CCC3)c12` [Compound 69, [3-({1-cyclobutyl-8-methoxy-5H-pyrido[4,3-b]indol-7-yl}oxy)propyl]dimethylamine hydrochloride] was tested. Which IC50 did it give?
Its IC50 is 30 nM.

How did the IC50 turn out when `COc1cc2c(cc1OCCN(C)C)[nH]c1ccncc12` [Compound 70, [2-({8-methoxy-5H-pyrido[4,3-b]indol-7-yl}oxy)ethyl]dimethylamine hydrochloride] was run?
The IC50 was 400 nM.

How did the IC50 turn out when `COc1cc2c(cc1OCCN1CCCC1)[nH]c1ccncc12` [Compound 71, 1-[2-({8-methoxy-5H-pyrido[4,3-b]indol-7-yl}oxy)ethyl]pyrrolidine hydrochloride] was run?
The IC50 was 52 nM.

For `COc1cc2c(cc1OCCCN1CCC1)[nH]c1ccncc12` [Compound 72, 1-[3-({8-methoxy-5H-pyrido[4,3-b]indol-7-yl}oxy)propyl]azetidine hydrochloride], which IC50 is on record?
Its IC50 is 9.1 nM.

For `COc1cc2c(cc1OCCCN1CCCC1)[nH]c1ccnc(OC3CCOCC3)c12` [Compound 73, 1-(3-{[8-methoxy-1-(oxan-4-yloxy)-5H-pyrido[4,3-b]indol-7-yl]oxy}propyl)pyrrolidine trifluoroacetate], which IC50 is on record?
Its IC50 is 960 nM.

`COc1cc2c(cc1OCCCN1CCCC1)[nH]c1ccnc(OC3CCNC3)c12` (centres unmarked) [Compound 74, 3-({8-methoxy-7-[3-(pyrrolidin-1-yl)propoxy]-5H-pyrido[4,3-b]indol-1-yl}oxy)pyrrolidine bis(2,2,2-trifluoroacetate)] was tested. Which IC50 did it give?
The IC50 was 6.7 nM.

How did the IC50 turn out when `COc1cc2c(cc1OCCCN1CCCC1)[nH]c1ccnc(OC(C)C)c12` [Compound 75, 1-(3-{[8-methoxy-1-(propan-2-yloxy)-5H-pyrido[4,3-b]indol-7-yl]oxy}propyl)pyrrolidine trifluoroacetate] was run?
The IC50 was 1000 nM.

For `COc1cc2c(cc1OCCCN1CCCC1)[nH]c1ccnc(-n3ccnc3)c12` [Compound 76, 1-{8-methoxy-7-[3-(pyrrolidin-1-yl)propoxy]-5H-pyrido[4,3-b]indol-1-yl}-1H-imidazole trifluoroacetate], which IC50 is on record?
The IC50 was 960 nM.

With `COc1cc2c(cc1OCCCN1CCCC1)[nH]c1ccnc(-n3cccn3)c12` [Compound 77, 1-[8-methoxy-7-[3-(pyrrolidin-1-yl)propoxy]-5H-pyrido[4,3-b]indol-1-yl]-1H-pyrazole trifluoroacetate] as the compound, how does the IC50 read?
Its IC50 is 2500 nM.

Which IC50 does the source give for `COc1cc2c(cc1OCCCN1CCCC1)[nH]c1ccnc(-c3cncs3)c12` [Compound 78, 5-{8-methoxy-7-[3-(pyrrolidin-1-yl)propoxy]-5H-pyrido[4,3-b]indol-1-yl}-1,3-thiazole trifluoroacetate] here?
Its IC50 is 260 nM.

How did the IC50 turn out when `COc1cc2c(cc1OCCCN1CCCC1)[nH]c1cc(CO)ncc12` [Compound 79, {8-methoxy-7-[3-(pyrrolidin-1-yl)propoxy]-5H-pyrido[4,3-b]indol-3-yl}methanol trifluoroacetate] was run?
The IC50 was 140 nM.

`COc1cc2c(cc1OCCCN1CCCC1)[nH]c1cc(O)ncc12` [Compound 80, 8-methoxy-7-(3-(pyrrolidin-1-yl)propoxy)-5H-pyrido[4,3-b]indol-3-ol formate] was tested. Which IC50 did it give?
Its IC50 is over 10000 nM.

For `COc1cc2c(cc1OCCCN1CCCC1)[nH]c1ccnc(-c3cn[nH]c3)c12` [Compound 81, 4-[8-methoxy-7-[3-(pyrrolidin-1-yl)propoxy]-5H-pyrido[4,3-b]indol-1-yl]-1H-pyrazole hydrochloride], which IC50 is on record?
Its IC50 is 22 nM.

For `COc1cc2c(cc1OCCCN1CCCC1)[nH]c1ccnc(CO)c12` [Compound 82, 8-methoxy-7-[3-(pyrrolidin-1-yl)propoxy]-5H-pyrido[4,3-b]indol-1-yl]methanol trifluoroacetate], which IC50 is on record?
The IC50 was 4.5 nM.

How did the IC50 turn out when `COc1cc2c(cc1OCCCN1CCCC1)[nH]c1ccnc(-c3cnc[nH]3)c12` [Compound 84, 1-(1H-imidazol-5-yl)-8-methoxy-7-(3-(pyrrolidin-1-yl)propoxy)-5H-pyrido[4,3-b]indole trifluoroacetate] was run?
Its IC50 is 17 nM.

With `CCN(CC)c1nccc2[nH]c3cc(OCCCN4CCCC4)c(OC)cc3c12` [Compound 85, N,N-diethyl-8-methoxy-7-[3-(pyrrolidin-1-yl)propoxy]-5H-pyrido[4,3-b]indol-1-amine bis formate] as the compound, how does the IC50 read?
Its IC50 is 17 nM.

How did the IC50 turn out when `COc1cc2c(cc1OCCCN1CCCC1)[nH]c1c(Cl)cnc(N3CCCC3)c12` [Compound 86, 1-{4-chloro-8-methoxy-7-[3-(pyrrolidin-1-yl)propoxy]-5H-pyrido[4,3-b]indol-1-yl}pyrrolidine hydrochloride] was run?
The IC50 was 180 nM.

How did the IC50 turn out when `COc1cc2c(cc1OCC1CCCNC1)[nH]c1ccncc12` (centres unmarked) [Compound 87, 3-[({8-methoxy-5H-pyrido[4,3-b]indol-7-yl}oxy)methyl]piperidine hydrochloride] was run?
Its IC50 is 240 nM.

Which IC50 does the source give for `COc1cc2c(cc1OCCCN(C)C)[nH]c1ccncc12` [Compound 88, [3-({8-methoxy-5H-pyrido[4,3-b]indol-7-yl}oxy)propyl]dimethylamine hydrochloride] here?
The IC50 was 12 nM.
